Experimental data taken from patent publication US20060069132A1, “Azolecarboxamide herbicides” (priority 2004, published 2006).

Key:
corn = assay: Test C pre-/postemergence herbicide test; assay type: in vivo, Zea mays
Text: (§1) Seeds of plant species selected from bermudagrass (Cynodon dactylon (L.) Pers.), Surinam grass (Urochloa decumbens (Staph) R. D. Webster, previously named Brachiaria decumbens Stapf), cocklebur (Xanthium strumarium L.), corn (Zea mays L.), large crabgrass (Digitaria sanguinalis (L.) Scop.), woolly cupgrass (Eriochloa villosa (Thunb.) Kunth), giant foxtail (Setaria faberi Herrm.), goosegrass (Eleusine indica (L.) Gaertn.), johnsongrass (Sorghum halepense (L.) Pers.), kochia (Kochia scoparia (L.) Schrad.), lambsquarters (Chenopodium album L.), morningglory (Ipomoea coccinea L.), eastern black nightshade (Solanum ptycanthum Dunal), yellow nutsedge (Cyperus esculentus L.), pigweed (Amaranthus retroflexus L.), common ragweed (Ambrosia elatior L.), soybean (Glycine max (L.) Merr.), common (oilseed) sunflower (Helianthus annuus L.) and velvetleaf (Abutilon theophrasti Medik.) were planted and treated preemergence with test chemicals formulated in a non-phytotoxic solvent mixture which included a surfactant.
(§2) At the same time, plants selected from these crop and weed species and also winter barley (Hordeum vulgare L.), blackgrass (Alopecurus myosuroides Huds.), canarygrass (Phalaris minor Retz.), chickweed (Stellaria media (L.) Vill.), downy bromegrass (Bromus tectorum L.), green foxtail (Setaria viridis (L.) Beauv.), Italian ryegrass (Lolium multiflorum Lam.), wheat (Triticum aestivum L.), wild oat (Avenafatua L.) and windgrass (Apera spica-venti (L.) Beauv.) were treated with postemergence applications of some of the test chemicals formulated in the same manner. Plants ranged in height from 2 to 18 cm (1- to 4-leaf stage) for postemergence treatments. Plant species in the flooded paddy test consisted of rice (Oryza sativa), smallflower umbrella sedge (Cyperus difformis L.), ducksalad (Heteranthera limosa (Sw.) Willd.) and barnyardgrass (Echinochloa crus-galli (L.) Beauv.) grown to the 2-leaf stage for testing. Treated plants and controls were maintained in a greenhouse for 12 to 14 days, after which time all species were compared to controls and visually evaluated. Plant response ratings, summarized in Table C, are based on a scale of 0 to 100 where 0 is no effect and 100 is complete control. A dash (-) response means no test result.

yellow nutsedge = assay: Test C pre-/postemergence herbicide test; assay type: in vivo, Cyperus esculentus; details: for Plant response rating, Nutsedge, Yellow / Plant response rating (0 = no effect, 100 = complete control), Nutsedge, Yellow: preemergence
Text: as §1, §2

cocklebur = assay: Test C pre-/postemergence herbicide test; assay type: in vivo, Xanthium strumarium
Text: as §1, §2

kochia = assay: Test C pre-/postemergence herbicide test; assay type: in vivo, Kochia scoparia
Text: as §1, §2

giant foxtail = assay: Test B pre-/postemergence herbicide test; assay type: in vivo, Setaria faberi
Outline: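 Visual rating, 0 (no effect) to 100 (complete control), versus untreated controls after 13–15 d in greenhouse. Pre- and postemergence applications (postemergence plants 2–18 cm, 1–4 leaves); flooded paddy arm at 2-leaf stage. Compounds in non-phytotoxic solvent plus surfactant.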

pigweed = assay: Test C pre-/postemergence herbicide test; assay type: in vivo, Amaranthus retroflexus
Text: as §1, §2

barnyardgrass = assay: Test C flooded paddy test; assay type: in vivo, Echinochloa crus-galli
Outline: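 Postemergence sprays applied to plants 2 to 18 cm tall (1- to 4-leaf stage); paddy species grown to 2-leaf stage under flooding. After 12 to 14 days in greenhouse, visual rating versus untreated controls on 0–100 scale (0 no effect, 100 complete control).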

ducksalad = assay: Test C flooded paddy test; assay type: in vivo, Heteranthera limosa
[1] = 62 g ai/ha, preemergence, scale 0 to 100
[2] = 250 g ai/ha, scale 0-100, preemergence
[3] = 500 g ai/ha, scale 0 to 100 (0 no effect, 100 complete control), visual, 12 to 14 days, preemergence
[4] = 125 g ai/ha, 0 is no effect, 100 is complete control, preemergence
[5] = postemergence, 125 g ai/ha, scale 0 to 100
[6] = 125 g ai/ha, scale 0 to 100 (0 no effect, 100 complete control)
[7] = 250 g ai/ha, scale of 0 to 100, 0 is no effect, 100 is complete control
[8] = 500 g ai/ha, visual rating after 12 to 14 days, scale 0 to 100 (0 no effect, 100 complete control)
[9] = 125 g ai/ha, visual rating, scale 0 (no effect) to 100 (complete control), postemergence
[10] = postemergence, 500 g ai/ha, scale 0 to 100, 0 is no effect, 100 is complete control
[11] = 125 g ai/ha, scale 0 (no effect) to 100 (complete control), visual, 12 to 14 days, preemergence
[12] = 250 g ai/ha, scale 0 to 100 (0 no effect, 100 complete control), visual, 12 to 14 days, preemergence
[13] = Postemergence, 500 g ai/ha, scale 0 to 100
[14] = Postemergence, 125 g ai/ha, scale 0 to 100, 0 no effect, 100 complete control
[15] = Postemergence, 250 g ai/ha, scale 0 to 100, 0 no effect, 100 complete control
[16] = Preemergence, 500 g ai/ha, scale 0 to 100, 0 no effect, 100 complete control
[17] = postemergence, 62 g ai/ha, scale 0 to 100

C=CCNC(=O)c1cccc(NC(=O)c2nn(C(C)(C)C)nc2CC)c1 [Compound 414]
Plant response rating, Corn (corn; [1]): 0 | Plant response rating (0 = no effect, 100 = complete control), Corn (corn; 125 g ai/ha, preemergence): 0 | Plant response rating, Corn (corn; [2]): 50 | Plant response rating, Corn (corn; [3]): 80 | Plant response rating, Nutsedge, Yellow (yellow nutsedge; 62 g ai/ha, scale 0 to 100): 0 | Plant response rating (0 = no effect, 100 = complete control), Nutsedge, Yellow (yellow nutsedge; 125 g ai/ha): 0 | Plant response rating, Nutsedge, Yellow (yellow nutsedge; 500 g ai/ha, scale 0 to 100 (0 no effect, 100 complete control), visual, 12 to 14 days): 20 | Plant response rating, Cocklebur (cocklebur; [1]): 0 | Plant response rating (0 = no effect, 100 = complete control), Cocklebur (cocklebur; 125 g ai/ha, preemergence): 15 | Plant response rating, Cocklebur (cocklebur; [2]): 20 | Plant response rating, Cocklebur (cocklebur; [3]): 30 | Plant response rating, Kochia (kochia; [1]): 60 | Plant response rating (0 = no effect, 100 = complete control), Kochia (kochia; 125 g ai/ha, preemergence): 75 | Plant response rating, Kochia (kochia; [2]): 80 | Plant response rating, Kochia (kochia; [3]): 100 | Plant response rating (0 to 100 scale), Foxtail, Giant (giant foxtail; [4]): 90 | Foxtail, Giant plant response rating (giant foxtail; Postemergence, 500 g ai/ha, scale 0 (no effect) to 100 (complete control)): 40 | Foxtail, Giant plant response rating (giant foxtail; [5]): 30 | Plant response rating, Pigweed (pigweed; [1]): 100 | Plant response rating (0 = no effect, 100 = complete control), Pigweed (pigweed; 125 g ai/ha, preemergence): 100 | Plant response rating, Pigweed (pigweed; [3]): 100

CCc1nn(C(C)(C)C)nc1C(=O)Nc1cccc(C(=O)N(C)CC)c1 [Compound 384]
Plant response rating, Kochia (kochia; [1]): 90 | Plant response rating (0 = no effect, 100 = complete control), Kochia (kochia; 125 g ai/ha, preemergence): 100 | Plant response rating, Kochia (kochia; [2]): 100 | Barnyardgrass plant response rating (barnyardgrass; 62 g ai/ha, scale 0 to 100 (0 no effect, 100 complete control)): 65 | Barnyardgrass plant response rating (barnyardgrass; [6]): 75 | Barnyardgrass plant response rating (barnyardgrass; [7]): 90 | Plant response rating, Barnyardgrass (barnyardgrass; [8]): 95 | Plant response rating (0 to 100 scale), Foxtail, Giant (giant foxtail; [4]): 90 | Foxtail, Giant plant response rating (giant foxtail; [9]): 10 | Foxtail, Giant plant response rating (giant foxtail; [10]): 30 | Plant response rating, Pigweed (pigweed; [1]): 100 | Plant response rating (0 = no effect, 100 = complete control), Pigweed (pigweed; 125 g ai/ha, preemergence): 100 | Plant response rating, Pigweed (pigweed; [2]): 100 | Ducksalad plant response rating (ducksalad; 62 g ai/ha, scale 0 to 100): 80 | Ducksalad plant response rating (ducksalad; [6]): 80 | Ducksalad plant response rating (ducksalad; [7]): 80 | Plant response rating, Ducksalad (ducksalad; [8]): 85

C#CCn1nc(C(C)(C)C)cc1C(=O)Nc1cccc(C(=O)NCC)c1 [Compound 50]
Plant response rating (0 = no effect, 100 = complete control), Corn (corn; 62 g ai/ha, preemergence): 0 | Plant response rating, Corn (corn; [11]): 0 | Plant response rating, Corn (corn; [12]): 0 | Corn plant response rating (corn; [13]): 85 | Plant response rating, Corn (corn; [14]): 80 | Plant response rating, Corn (corn; [15]): 85 | Corn plant response rating (corn; [16]): 10 | Plant response rating, Corn (corn; [17]): 20 | Plant response rating (0 = no effect, 100 = complete control), Nutsedge, Yellow (yellow nutsedge; 62 g ai/ha): 0 | Plant response rating, Nutsedge, Yellow (yellow nutsedge; 125 g ai/ha, scale 0 (no effect) to 100 (complete control), visual, 12 to 14 days): 10 | Plant response rating, Nutsedge, Yellow (yellow nutsedge; 250 g ai/ha, scale 0 to 100 (0 no effect, 100 complete control), visual, 12 to 14 days): 40 | Nutsedge, Yellow plant response rating (yellow nutsedge; [16]): 80 | Plant response rating (0 = no effect, 100 = complete control), Cocklebur (cocklebur; 62 g ai/ha, preemergence): 0 | Plant response rating, Cocklebur (cocklebur; [11]): 10 | Plant response rating, Cocklebur (cocklebur; [12]): 80 | Cocklebur plant response rating (cocklebur; [13]): 10 | Plant response rating, Cocklebur (cocklebur; [14]): 10 | Plant response rating, Cocklebur (cocklebur; [15]): 10 | Cocklebur plant response rating (cocklebur; [16]): 80 | Plant response rating, Cocklebur (cocklebur; [17]): 10 | Plant response rating (0 = no effect, 100 = complete control), Kochia (kochia; 62 g ai/ha, preemergence): 30 | Plant response rating, Kochia (kochia; [11]): 85 | Plant response rating, Kochia (kochia; [12]): 100 | Kochia plant response rating (kochia; [13]): 10 | Plant response rating, Kochia (kochia; [14]): 10 | Plant response rating, Kochia (kochia; [15]): 10 | Kochia plant response rating (kochia; [16]): 100 | Plant response rating, Kochia (kochia; [17]): 0 | Plant response rating, Foxtail, Giant (giant foxtail; Postemergence, 500 g ai/ha, visual rating after 13 to 15 days, scale 0 (no effect) to 100 (complete control)): 30 | Foxtail, Giant plant response rating (giant foxtail; Preemergence, 500 g ai/ha, scale 0 to 100): 100 | Foxtail, Giant plant response rating (giant foxtail; postemergence, 125 g ai/ha, visual rating, scale 0 (no effect) to 100 (complete control)): 30 | Plant response rating, Foxtail, Giant (giant foxtail; preemergence, 125 g ai/ha, 0 to 100 scale, 0 is no effect, 100 is complete control): 20 | Plant response rating (0 = no effect, 100 = complete control), Pigweed (pigweed; 62 g ai/ha, preemergence): 90 | Plant response rating, Pigweed (pigweed; [11]): 90 | Plant response rating, Pigweed (pigweed; [12]): 95 | Pigweed plant response rating (pigweed; [13]): 100 | Plant response rating, Pigweed (pigweed; [15]): 100 | Pigweed plant response rating (pigweed; [16]): 95 | Plant response rating, Pigweed (pigweed; [17]): 50

CCOC(=O)c1cccc(NC(=O)c2nn(C(C)(C)CC)nc2CC)c1 [Compound 375]
Plant response rating, Corn (corn; [1]): 0 | Plant response rating (0 = no effect, 100 = complete control), Corn (corn; 125 g ai/ha, preemergence): 5 | Plant response rating, Corn (corn; [2]): 5 | Plant response rating, Corn (corn; [15]): 20 | Plant response rating, Corn (corn; [5]): 15 | Plant response rating, Corn (corn; [17]): 10 | Plant response rating, Nutsedge, Yellow (yellow nutsedge; 31 g ai/ha, scale 0 to 100, last section of Table C): 0 | Plant response rating, Nutsedge, Yellow (yellow nutsedge; 62 g ai/ha, scale 0 to 100): 0 | Plant response rating (0 = no effect, 100 = complete control), Nutsedge, Yellow (yellow nutsedge; 125 g ai/ha): 0 | Plant response rating, Nutsedge, Yellow (yellow nutsedge; 250 g ai/ha, scale 0-100): 0 | Plant response rating, Cocklebur (cocklebur; [1]): 0 | Plant response rating (0 = no effect, 100 = complete control), Cocklebur (cocklebur; 125 g ai/ha, preemergence): 0 | Plant response rating, Cocklebur (cocklebur; [2]): 0 | Plant response rating, Cocklebur (cocklebur; [15]): 15 | Plant response rating, Cocklebur (cocklebur; [5]): 10 | Plant response rating, Cocklebur (cocklebur; postemergence, 31 g ai/ha, scale 0 to 100): 0 | Plant response rating, Cocklebur (cocklebur; [17]): 10 | Plant response rating, Kochia (kochia; [1]): 80 | Plant response rating (0 = no effect, 100 = complete control), Kochia (kochia; 125 g ai/ha, preemergence): 100 | Plant response rating, Kochia (kochia; [2]): 100 | Plant response rating, Kochia (kochia; [15]): 90 | Plant response rating, Kochia (kochia; [5]): 85 | Plant response rating, Kochia (kochia; [17]): 70 | Plant response rating (0 to 100 scale), Foxtail, Giant (giant foxtail; [4]): 50 | Foxtail, Giant plant response rating (giant foxtail; [9]): 40 | Foxtail, Giant plant response rating (giant foxtail; [10]): 70 | Plant response rating, Pigweed (pigweed; [1]): 50 | Plant response rating (0 = no effect, 100 = complete control), Pigweed (pigweed; 125 g ai/ha, preemergence): 50 | Plant response rating, Pigweed (pigweed; [2]): 100 | Plant response rating, Pigweed (pigweed; [17]): 80
